Source: ChEMBL document CHEMBL5244216, “Pyrrole: An insight into recent pharmacological advances with structure activity relationship” (Eur J Med Chem, 2018)

test system: Mycobacterium tuberculosis; assay: Antitubercular activity against Multidrug-resistant Mycobacterium tuberculosis H37Rv assessed as reduction in microbial growth by broth dilution method; type: functional

SMILES | MIC [µg/mL]
CCOc1cc(C2OC(c3ccc(-n4cccc4)cc3)=NN2C(C)=O)ccc1O (stereo not given) | 0.2
Cc1ccc(C)n1-c1ccc(C(=O)n2[nH]c(=O)c3ccccc3c2=O)cc1 | 0.4
CO[C@H]1/C=C/O[C@@]2(C)Oc3c(C)c(O)c4c(O)c(c(/C=N/N5CCN(C)CC5)c(O)c4c3C2=O)NC(=O)/C(C)=C\C=C\[C@H](C)[C@H](O)[C@@H](C)[C@@H](O)[C@@H](C)[C@H](OC(C)=O)[C@@H]1C [RIFAMPIN] | 25
CC[C@@H](CO)NCCN[C@@H](CC)CO [ETHAMBUTOL] | 12.5
NNC(=O)c1ccncc1 [ISONIAZID] | 12.5
